The record followed here is US20250120967A1, “TYROSINE KINASES INHIBITORS AND USES THEREOF” (GREAT NOVEL THERAPEUTICS BIOTECH & MEDICALS CORPORATION, priority 2023, published 2025).

What is called IC50 is the concentration needed to halve the response being measured. The low end stands for greater potency, the high end for weaker potency.

One assay relates to M10 cells. The experiment in a line: In vitro cytotoxicity assay (MTT, 72 h). Conditions: growth inhibition, human normal cell line. In kind it is cell-based. The procedure: (§1) Six different cell lines were used, including human breast cancer cell lines MDA-MB-231 (6×10^3) and MDA-MB-453 (2.4×10^4), human colorectal cell line SW48 (2.4×10^4), human breast epithelial cell line M10 (6×10^3), human cancer cell line A549 (1.4×10^3), and murine colorectal carcinoma tumors CT26 (6×10^3), which were seeded in a 96-well plate. […] After 72 h, MTT assay (Cayman™) was used to determine the cellular viability.

A further assay relates to MDA-MB-231 cells. The experiment in a line: In vitro cytotoxicity assay (MTT, 72 h). In kind it is cell-based. Conditions: Homo sapiens, growth inhibition. As to the method:
as §1

The test system of a further assay is MDA-MB-453 cells. The experiment in a line: In vitro cytotoxicity assay (MTT, 72 h). The assay is classed as cell-based. Conditions: Homo sapiens, growth inhibition. The procedure:
as §1

A further assay deals with SW48 cells. The experiment in a line: In vitro cytotoxicity assay (MTT, 72 h). The assay is classed as cell-based. Conditions: Homo sapiens, growth inhibition. As to the method: as §1
The next assay concerns A549 cells. The experiment in a line: In vitro cytotoxicity assay (MTT, 72 h). In kind it is cell-based. As to conditions: Homo sapiens, growth inhibition. The procedure: as §1
For a further assay, the system named is CT-26 cells. The experiment in a line: In vitro cytotoxicity assay (MTT, 72 h). The assay is classed as cell-based, murine. Conditions: Mus musculus, CT26, growth inhibition. The procedure:
as §1

The next assay has as its system CT26 tumor. The experiment in a line: Experimental tumor model and therapies, CT26 tumor-bearing mice.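 Further: male Balb/c mice bearing CT26 grafts in the back, treated once tumors reached roughly 250–300 mm^3, tumor volume measured twice weekly, response graded by fold growth after treatment end.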
[1] abbreviates: FIG. 3E, oral 12 days, Cabozantinib 30 mg/kg, Cbo-20 30 mg/kg, GNTbm-38-K30 40 mg/kg.
The mark [2] stands for this setting: FIG. 7E, Cbo-23-K30 30 mg/kg, Zanzalintinib hemifumarate 30 mg/kg, GNTbm-38-2HCL 40 mg/kg.
[3] abbreviates: FIG. 5E, Cbo-23 30 mg/kg, Regorafenib 30 mg/kg, GNTbm-38-K30 20 mg/kg in combination, 5 mg/kg alone.

Description for CT26 tumor: LLC1 was grown at 37° C. under humidified air supplemented with CO2 in DMEM (#10-013-CM, Corning®) containing 10% heat inactivated fetal calf serum, and 1× concentration of MycoZap Antibiotics. CT26 was grown at 37° C. under humidified air supplemented with CO2 in RPMI1640 (cat. #10-040-CM, Corning®) containing 10% heat inactivated fetal calf serum, and 1× concentration of MycoZap Antibiotics. After the cancer cell culture was completed, it was implanted (1×10^6 cells/mouse) into the back of the mouse for growth.
Six- to eight-week-old male Balb/c mice (National Laboratory Animal Center, Taiwan) were used for all animal experiments. […] Tumors were allowed to grow for 10-12 days (tumor size about 250-300 mm^3) before randomization and treatment. The tumor volume of the mice was measured once every three or four days (twice/week). Animals were euthanized when tumors reached more than 3000 mm^3 in diameter. […] Relapse/recurrence was defined as when tumor growth reappeared and tumor size reached at least 5 fold in mice with CR or PR response after secondary tumor assessment. In this study, we defined Complete Response (CR, <0.5 time tumor growth in the tumor bearing mice at tumor assessment after the end of treatment); Partial Response (PR, tumor size ≥0.5 time tumor growth, but <1 time tumor growth in the tumor bearing mice at tumor assessment after the end of treatment); Stable Disease (SD, ≥1 time tumor growth, but <5 times tumor growth in the tumor bearing mice at tumor assessment after the end of treatment); and Progressive Disease (PD, ≥5 times tumor growth in the tumor bearing mice at tumor assessment after the end of treatment) for the evaluation of treatment efficacy.

`COc1cc2nccc(Oc3ccc(C(=O)NC4(C(=O)Nc5ccc(F)cc5)CC4)cc3F)c2cc1OC` [Cbo-03, 4-((6,7-diMethoxyquinolin-4-yl)oxy)-3-fluoro-N-(1-((4-fluorophenyl)carbamoyl)cyclopropyl)benzamide]: the half-maximal inhibitory concentration (IC50) in the assay with M10 cells is 16.2 ± 1.44 µM; with MDA-MB-231 cells it was 12.7 ± 1.37 µM; in the assay with MDA-MB-453 cells, 17.9 ± 1.34 µM; in the assay with SW48 cells it was > 25 µM; with A549 cells, 12.8 ± 6.7 µM.

On to `COc1cc2nccc(Oc3ccc(NC(=O)C4(NC(=O)c5ccc(F)cc5)CC4)cc3F)c2cc1Oc1ccc(N)cc1` [Cbo-05], for which the IC50 in the assay on M10 cells is 1.17 ± 0.053 µM; with MDA-MB-231 cells, 7.84 ± 1.34 µM; in the assay on MDA-MB-453 cells it was 8.92 ± 1.49 µM; in the assay with SW48 cells it was 1.86 ± 0.059 µM; in the assay with A549 cells, 2.51 ± 0.21 µM; in the assay with CT-26 cells it was 8.9 ± 0.61 µM.

For `COc1cc2nccc(Oc3ccc(NC(=O)C4(NC(=O)c5ccc(F)cc5)CC4)cc3F)c2cc1Oc1ccc(N)cn1` [Cbo-06], the IC50 is 5.59 ± 0.46 µM with M10 cells; > 25 µM in the assay with MDA-MB-231 cells; > 25 µM in the assay with MDA-MB-453 cells; 8.76 ± 0.52 µM in the assay with SW48 cells; 6.89 ± 1.61 µM with A549 cells.

Regarding `COc1cc2nccc(Oc3ccc(NC(=O)C4(NC(=O)c5ccc(F)cc5)CC4)cc3F)c2cc1O` [Cbo-07, 4-Fluoro-N-(1-((3-fluoro-4-((6-hydroxy-7-methoxyquinolin-4-yl)oxy)phenyl)carbamoyl)cyclopropyl)benzamide], the IC50 is 4.44 ± 1.51 µM in the assay on M10 cells; 5.07 ± 1.04 µM in the assay on MDA-MB-231 cells; > 25 µM with MDA-MB-453 cells; 0.74 ± 0.13 µM with SW48 cells; 1.49 ± 0.21 µM in the assay on A549 cells.

With `COc1cc2nccc(Oc3ccc(NC(=O)C4(NC(=O)c5ccc(F)cc5)CC4)cc3F)c2cc1Oc1cccc(N)c1` [Cbo-08], the IC50 was 1.83 ± 0.72 µM with M10 cells; > 25 µM with MDA-MB-231 cells; > 25 µM in the assay on MDA-MB-453 cells; 3.51 ± 0.48 µM in the assay with SW48 cells; 2.6 ± 1.82 µM in the assay with A549 cells.

As for `COc1cc2nccc(Oc3ccc(NC(=O)C4(NC(=O)c5ccc(F)cc5)CC4)cc3F)c2cc1Oc1ccc(N)cc1C` [Cbo-09], the IC50 in the assay on M10 cells came out at 0.99 ± 0.044 µM; with MDA-MB-231 cells, 12.6 ± 0.98 µM; in the assay on MDA-MB-453 cells, 9.28 ± 0.66 µM; in the assay on SW48 cells, 1.02 ± 0.008 µM; with A549 cells, 6.89 ± 1.61 µM.

`COc1cc2nccc(Oc3ccc(N(C(=O)C4(C(N)=O)CC4)c4ccc(F)cc4)cc3F)c2cc1OC` [Cbo-20, N-(4-((6,7-dimethoxyquinolin-4-yl)oxy)-3-fluorophenyl)-N-(4-fluorophenyl)cyclo-propane-1,1-dicarboxamide]: the “CR (number of mice)” value in the assay with CT26 tumor (setting [1]) was determined as 2. In the assay with CT26 tumor (setting [1]), this molecule registered an ORR of 50%. The “PD (number of mice)” value in the assay with CT26 tumor (setting [1]) was 2. For the same molecule, the “PR (number of mice)” value in the assay on CT26 tumor (setting [1]) came out at 2. The “Survival Rate” value in the assay on CT26 tumor (FIG. 3F, Cabozantinib 30 mg/kg, Cbo-20 30 mg/kg, GNTbm-38-K30 40 mg/kg) was determined as 25%. In addition, the recurrence rate in the assay on CT26 tumor (FIG. 3G, day 60, Cabozantinib 30 mg/kg, Cbo-20 30 mg/kg, GNTbm-38-K30 40 mg/kg) is 75%. For the same molecule, the IC50 in the assay with M10 cells stood at 5.47 ± 1.73 µM; in the assay on MDA-MB-231 cells, 4.81 ± 1.16 µM; in the assay on MDA-MB-453 cells, 14.1 ± 2.06 µM; in the assay with SW48 cells, 2.51 ± 0.18 µM; with A549 cells, 3.34 ± 0.69 µM; in the assay on CT-26 cells it was 8.89 ± 0.24 µM.

For `CC(CN)NC(=O)c1cc(Oc2ccc(N(C(=O)C3(C(N)=O)CC3)c3ccc(F)cc3)cc2F)ccn1` (centres unmarked) [Cbo-22, N-(4-((2-((1-aminopropan-2-yl)carbamoyl)pyridin-4-yl)oxy)-3-fluorophenyl)-N-(4-fluorophenyl)cyclopropane-1,1-dicarboxamide], the ORR in the assay on CT26 tumor (FIG. 4D, Cabozantinib 30 mg/kg, Cbo-22 30 mg/kg, GNTbm-38-K30 40 mg/kg) is 0%. Further, in the assay with CT26 tumor (FIG. 4E, Cabozantinib 30 mg/kg, Cbo-22 30 mg/kg, GNTbm-38-K30 40 mg/kg), the “Survival Rate” value was determined as 0%. Also, the IC50 was 15.1 ± 0.44 µM with M10 cells; 16.1 ± 0.19 µM with MDA-MB-231 cells; > 25 µM in the assay on MDA-MB-453 cells; 21.9 ± 0.96 µM with SW48 cells; 11.2 ± 1.18 µM with A549 cells; > 25 µM in the assay on CT-26 cells.

`COc1cc2nccc(Oc3ccc(NC(=O)C4(C(=O)Nc5ccc(F)cc5)CC4)cc3F)c2cc1C(=O)NC(C)CN` (centres unmarked) [Cbo-24, O-phenyl-N-(4-fluorophenyl)cyclopropane-1,1-dicarboxamide]: the IC50 in the assay with M10 cells was > 25 µM; with MDA-MB-231 cells, 15.7 ± 0.33 µM; with MDA-MB-453 cells, 17 ± 0.96 µM; in the assay on SW48 cells it was 8.75 ± 0.55 µM; with A549 cells, 16.2 ± 0.95 µM; in the assay on CT-26 cells, > 25 µM.

In the case of `Nc1ccccc1NC(=O)c1ccc(NC(=O)C/C=C/c2cccnc2)cc1` [GNTbm-38-2HCL, (E)-N-(2-aminophenyl)-4-(4-(pyridin-3-yl)but-3-enamido)benzamide], in the assay with CT26 tumor (setting [2]), the “CR (number of mice)” value is recorded as 0, the ORR is reported as 0%, the “PD (number of mice)” value was found to be 9 and the “PR (number of mice)” value stood at 0.

Consider `CNC(=O)c1cc(Oc2ccc(NC(=O)Nc3ccc(Cl)c(C(F)(F)F)c3)c(F)c2)ccn1` [Regorafenib], for which, in the assay with CT26 tumor (setting [3]), the “CR (number of mice)” value stood at 0, the ORR was determined as 0%, the “PD (number of mice)” value was found to be 7 and the “PR (number of mice)” value is reported as 0. Further, in the assay with CT26 tumor (FIG. 5F, Cbo-23 30 mg/kg, Regorafenib 30 mg/kg, GNTbm-38-K30 20 mg/kg in combination, 5 mg/kg alone), the “Survival Rate” value is 0%.

For the molecule Zanzalintinib hemifumarate, in the assay with CT26 tumor (setting [2]), the “CR (number of mice)” value was found to be 0, the ORR turned out to be 0%, the “PD (number of mice)” value was determined as 9 and the “PR (number of mice)” value stood at 0. In addition, the “tumor inhibition rate at day 28” value in the assay on CT26 tumor (FIGS. 7B, 7C, Cbo-23-K30 30 mg/kg, Zanzalintinib hemifumarate 30 mg/kg, GNTbm-38-2HCL 40 mg/kg) was determined as 2%.
